# Test results taken from PubChem BioAssay (NCI).
#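 Compound exposure: 48 hours, 5 concentrations, 96-well plates. TGI denotes the concentration required for complete inhibition of growth.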
# Tests used:
# Test in all cases: NCI anticancer screen, dose series, 48 h
# [1] = test system: 786-0 renal
# [2] = test system: A549 NSCLC
# [3] = test system: ACHN renal
# [4] = test system: CAKI-1 renal
# [5] = test system: CCRF-CEM leukemia
# [6] = test system: COLO 205 colon
# [7] = test system: DLD-1 colon
# [8] = test system: DMS 114 small cell lung
# [9] = test system: DMS 273 small cell lung
# [10] = test system: HCT-116 colon
# [11] = test system: HCT-15 colon
# [12] = test system: HL-60(TB) leukemia
# [13] = test system: HOP-18 NSCLC
# [14] = test system: HOP-62 NSCLC
# [15] = test system: HOP-92 NSCLC
# [16] = test system: HT29 colon
# [17] = test system: IGROV1 ovarian
# [18] = test system: KM12 colon
# [19] = test system: KM20L2 colon
# [20] = test system: LOX IMVI melanoma
# [21] = test system: LXFL 529 NSCLC
# [22] = test system: M14 melanoma
# [23] = test system: M19-MEL melanoma
# [24] = test system: MALME-3M melanoma
# [25] = test system: MOLT-4 leukemia
# [26] = test system: NCI-H23 lung
# [27] = test system: NCI-H460 lung
# [28] = test system: NCI-H522 lung
# [29] = test system: OVCAR-3 ovarian
# [30] = test system: OVCAR-4 ovarian
# [31] = test system: OVCAR-5 ovarian
# [32] = test system: OVCAR-8 ovarian
# [33] = test system: RPMI-8226 leukemia
# [34] = test system: RXF 393 renal
# [35] = test system: SF-268 CNS
# [36] = test system: SF-295 CNS
# [37] = test system: SF-539 CNS
# [38] = test system: SK-MEL-2 melanoma
# [39] = test system: SK-MEL-28 melanoma
# [40] = test system: SK-MEL-5 melanoma
# [41] = test system: SK-OV-3 ovarian
# [42] = test system: SN12C renal
# [43] = test system: SNB-19 CNS
# [44] = test system: SNB-75 CNS
# [45] = test system: SNB-78 CNS
# [46] = test system: SR leukemia
# [47] = test system: SW-620 colon
# [48] = test system: TK-10 renal
# [49] = test system: U251 CNS
# [50] = test system: UACC-257 melanoma
# [51] = test system: UACC-62 melanoma
# [52] = test system: UO-31 renal
# [53] = test system: XF 498 CNS
# [54] = test system: A498 renal
# [55] = test system: EKVX NSCLC
# [56] = test system: HCC-2998 colon
# [57] = test system: K-562 leukemia
# [58] = test system: NCI-H226 lung
# [59] = test system: RXF-631 renal
structure (smiles),measurement,setting,value
CC(=O)OC(C)(C)C1CCC(C)(C(O)COc2ccc(CCNC(=O)c3ccccc3)cc2)O1 (stereo not given),TGI,[1],> 100 µM
same,TGI,[2],> 100 µM
same,TGI,[3],> 100 µM
same,TGI,[4],> 100 µM
same,TGI,[5],> 100 µM
same,TGI,[6],> 100 µM
same,TGI,[7],> 100 µM
same,TGI,[8],62.2 µM
same,TGI,[9],> 100 µM
same,TGI,[10],> 100 µM
same,TGI,[11],> 100 µM
same,TGI,[12],67.8 µM
same,TGI,[13],> 100 µM
same,TGI,[14],> 100 µM
same,TGI,[15],> 100 µM
same,TGI,[16],> 100 µM
same,TGI,[17],> 100 µM
same,TGI,[18],> 100 µM
same,TGI,[19],> 100 µM
same,TGI,[20],> 100 µM
same,TGI,[21],> 100 µM
same,TGI,[22],> 100 µM
same,TGI,[23],> 100 µM
same,TGI,[24],> 100 µM
same,TGI,[25],42.5 µM
same,TGI,[26],> 100 µM
same,TGI,[27],> 100 µM
same,TGI,[28],> 100 µM
same,TGI,[29],> 100 µM
same,TGI,[30],> 100 µM
same,TGI,[31],> 100 µM
same,TGI,[32],> 100 µM
same,TGI,[33],> 100 µM
same,TGI,[34],> 100 µM
same,TGI,[35],> 100 µM
same,TGI,[36],> 100 µM
same,TGI,[37],> 100 µM
same,TGI,[38],> 100 µM
same,TGI,[39],> 100 µM
same,TGI,[40],29.4 µM
same,TGI,[41],> 100 µM
same,TGI,[42],> 100 µM
same,TGI,[43],> 100 µM
same,TGI,[44],> 100 µM
same,TGI,[45],> 100 µM
same,TGI,[46],> 100 µM
same,TGI,[47],> 100 µM
same,TGI,[48],> 100 µM
same,TGI,[49],> 100 µM
same,TGI,[50],> 100 µM
same,TGI,[51],> 100 µM
same,TGI,[52],> 100 µM
same,TGI,[53],33.4 µM
CCOC(=O)[C@H]1Nc2ccc(O)cc2C2c3ccccc3CC21 (stereo not given in full),TGI,[1],> 100 µM
same,TGI,[54],> 100 µM
same,TGI,[2],> 100 µM
same,TGI,[3],> 100 µM
same,TGI,[4],> 100 µM
same,TGI,[6],> 100 µM
same,TGI,[7],> 100 µM
same,TGI,[8],> 100 µM
same,TGI,[9],> 100 µM
same,TGI,[55],> 100 µM
same,TGI,[56],> 100 µM
same,TGI,[10],> 100 µM
same,TGI,[11],> 100 µM
same,TGI,[13],> 100 µM
same,TGI,[14],> 100 µM
same,TGI,[16],> 100 µM
same,TGI,[17],> 100 µM
same,TGI,[57],> 100 µM
same,TGI,[18],> 100 µM
same,TGI,[19],> 100 µM
same,TGI,[20],> 100 µM
same,TGI,[21],> 100 µM
same,TGI,[22],> 100 µM
same,TGI,[23],> 100 µM
same,TGI,[24],> 100 µM
same,TGI,[25],> 100 µM
same,TGI,[58],> 100 µM
same,TGI,[26],> 100 µM
same,TGI,[27],> 100 µM
same,TGI,[28],> 100 µM
same,TGI,[29],91.8 µM
same,TGI,[30],> 100 µM
same,TGI,[31],> 100 µM
same,TGI,[32],> 100 µM
same,TGI,[33],> 100 µM
same,TGI,[34],91.9 µM
same,TGI,[59],> 100 µM
same,TGI,[35],> 100 µM
same,TGI,[37],> 100 µM
same,TGI,[38],> 100 µM
same,TGI,[39],98 µM
same,TGI,[40],> 100 µM
same,TGI,[42],> 100 µM
same,TGI,[43],> 100 µM
same,TGI,[44],> 100 µM
same,TGI,[45],> 100 µM
same,TGI,[47],> 100 µM
same,TGI,[48],> 100 µM
same,TGI,[49],> 100 µM
same,TGI,[50],> 100 µM
same,TGI,[51],> 100 µM
same,TGI,[52],> 100 µM
